Results taken from PubChem BioAssay (NCI).
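Tested at 5 concentrations; 48 h exposure; 96-well plates; endpoints linearly interpolated, else capped at highest concentration. GI50 is the concentration that inhibits growth by half. Definition used: TGI = concentration required for complete inhibition of growth.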

Assays:
Test in all cases: DTP human tumour cell line panel, 48 h
HOP-62 NSCLC = test system: HOP-62 NSCLC
CCRF-CEM leukemia = test system: CCRF-CEM leukemia
OVCAR-5 ovarian = test system: OVCAR-5 ovarian
ACHN renal = test system: ACHN renal
SN12C renal = test system: SN12C renal
M14 melanoma = test system: M14 melanoma
OVCAR-8 ovarian = test system: OVCAR-8 ovarian
SK-OV-3 ovarian = test system: SK-OV-3 ovarian
U251 CNS = test system: U251 CNS
NCI-H522 lung = test system: NCI-H522 lung
CAKI-1 renal = test system: CAKI-1 renal
SR leukemia = test system: SR leukemia
OVCAR-4 ovarian = test system: OVCAR-4 ovarian
KM12 colon = test system: KM12 colon
MCF7 breast = test system: MCF7 breast
A549 NSCLC = test system: A549 NSCLC
HL-60(TB) leukemia = test system: HL-60(TB) leukemia
HS 578T breast = test system: HS 578T breast
UACC-257 melanoma = test system: UACC-257 melanoma
786-0 renal = test system: 786-0 renal
HCT-15 colon = test system: HCT-15 colon
SNB-19 CNS = test system: SNB-19 CNS
OVCAR-3 ovarian = test system: OVCAR-3 ovarian
NCI-H226 lung = test system: NCI-H226 lung
TK-10 renal = test system: TK-10 renal
MDA-MB-435 = test system: MDA-MB-435
RXF 393 renal = test system: RXF 393 renal
NCI-H460 lung = test system: NCI-H460 lung
DU-145 prostate = test system: DU-145 prostate
MDA-MB-231 breast = test system: MDA-MB-231 breast
RPMI-8226 leukemia = test system: RPMI-8226 leukemia
SNB-75 CNS = test system: SNB-75 CNS
NCI/ADR-RES ovarian = test system: NCI/ADR-RES ovarian
PC-3 prostate = test system: PC-3 prostate
SK-MEL-28 melanoma = test system: SK-MEL-28 melanoma
SF-295 CNS = test system: SF-295 CNS
K-562 leukemia = test system: K-562 leukemia
NCI-H23 lung = test system: NCI-H23 lung
SF-268 CNS = test system: SF-268 CNS
LOX IMVI melanoma = test system: LOX IMVI melanoma
UO-31 renal = test system: UO-31 renal
IGROV1 ovarian = test system: IGROV1 ovarian
T-47D breast = test system: T-47D breast
HT29 colon = test system: HT29 colon
COLO 205 colon = test system: COLO 205 colon
HCT-116 colon = test system: HCT-116 colon
EKVX NSCLC = test system: EKVX NSCLC
MOLT-4 leukemia = test system: MOLT-4 leukemia
A498 renal = test system: A498 renal
HOP-92 NSCLC = test system: HOP-92 NSCLC
SF-539 CNS = test system: SF-539 CNS
SK-MEL-5 melanoma = test system: SK-MEL-5 melanoma
SK-MEL-2 melanoma = test system: SK-MEL-2 melanoma
SW-620 colon = test system: SW-620 colon
UACC-62 melanoma = test system: UACC-62 melanoma
HCC-2998 colon = test system: HCC-2998 colon
MALME-3M melanoma = test system: MALME-3M melanoma

## CN(C)CCCCn1ccc2c1C(=O)c1c(c(O)c3ccccc3c1O)C2=O
HOP-62 NSCLC
  GI50: 15.8 µM
  TGI: 31 µM
CCRF-CEM leukemia
  GI50: 1.32 µM
  TGI: 4.54 µM
OVCAR-5 ovarian
  GI50: 12.9 µM
  TGI: 25.6 µM
ACHN renal
  GI50: 14.8 µM
  TGI: 27.9 µM
SN12C renal
  GI50: 14.1 µM
  TGI: 28.6 µM
M14 melanoma
  GI50: 2.78 µM
  TGI: 8.7 µM
OVCAR-8 ovarian
  GI50: 11.5 µM
  TGI: 25.6 µM
SK-OV-3 ovarian
  GI50: 11.4 µM
  TGI: 24 µM
U251 CNS
  GI50: 17.9 µM
  TGI: 31.7 µM
NCI-H522 lung
  GI50: 33.8 µM
  TGI: > 100 µM
CAKI-1 renal
  GI50: 4.02 µM
  TGI: 17.5 µM
SR leukemia
  GI50: 4.36 µM
  TGI: 23.6 µM
OVCAR-4 ovarian
  GI50: 19.6 µM
  TGI: 43.1 µM
KM12 colon
  GI50: 10.4 µM
  TGI: 24.4 µM
MCF7 breast
  GI50: 11.3 µM
  TGI: 28.4 µM
A549 NSCLC
  GI50: 18.9 µM
  TGI: 36.8 µM
HL-60(TB) leukemia
  GI50: 10.4 µM
  TGI: 23.4 µM
HS 578T breast
  GI50: 33.1 µM
  TGI: 60.9 µM
UACC-257 melanoma
  GI50: 15.5 µM
  TGI: 29.5 µM
786-0 renal
  GI50: 12.2 µM
  TGI: 25.3 µM
HCT-15 colon
  GI50: 16 µM
  TGI: 29.4 µM
SNB-19 CNS
  GI50: 14.6 µM
  TGI: 30.5 µM
OVCAR-3 ovarian
  GI50: 2.98 µM
  TGI: 15.9 µM
NCI-H226 lung
  GI50: 6.56 µM
  TGI: 21.8 µM
TK-10 renal
  GI50: 0.501 µM
  TGI: 7.73 µM
MDA-MB-435
  GI50: 2.01 µM
  TGI: 3.71 µM
RXF 393 renal
  GI50: 2.18 µM
  TGI: 8.91 µM
NCI-H460 lung
  GI50: 19.2 µM
  TGI: 36.9 µM
DU-145 prostate
  GI50: 20.1 µM
  TGI: 41.9 µM
MDA-MB-231 breast
  GI50: 17 µM
  TGI: 95.6 µM
RPMI-8226 leukemia
  GI50: 1.74 µM
  TGI: 7.52 µM
SNB-75 CNS
  GI50: 15.8 µM
  TGI: 35.8 µM
NCI/ADR-RES ovarian
  GI50: 13.3 µM
  TGI: 27.5 µM
PC-3 prostate
  GI50: 10 µM
  TGI: 23.4 µM
SK-MEL-28 melanoma
  GI50: 14.7 µM
  TGI: 28.2 µM
SF-295 CNS
  GI50: 4.63 µM
  TGI: 15.5 µM
K-562 leukemia
  GI50: 1.78 µM
  TGI: 4.07 µM
NCI-H23 lung
  GI50: 11.2 µM
  TGI: 23.3 µM
SF-268 CNS
  GI50: 11 µM
  TGI: 30.6 µM
LOX IMVI melanoma
  GI50: 10.4 µM
  TGI: 24.2 µM
UO-31 renal
  GI50: 33 µM
  TGI: > 100 µM
IGROV1 ovarian
  GI50: 18.6 µM
  TGI: > 100 µM
T-47D breast
  GI50: 3.77 µM
  TGI: 22.8 µM
HT29 colon
  GI50: 5.53 µM
  TGI: 18.4 µM
COLO 205 colon
  GI50: 7.05 µM
  TGI: 21 µM
HCT-116 colon
  GI50: 9.03 µM
  TGI: 21.1 µM

## Nc1ccc(C(OC(=O)c2cc3ccccc3c(Cc3c(O)c(C(=O)OC(c4ccc(N)cc4)(c4ccc(N)cc4)c4ccc(N)cc4)cc4ccccc34)c2O)(c2ccc(N)cc2)c2ccc(N)cc2)cc1
HOP-62 NSCLC
  GI50: 0.331 µM
  TGI: 14.1 µM
CCRF-CEM leukemia
  GI50: 3.03 µM
  TGI: > 100 µM
OVCAR-5 ovarian
  GI50: 2.7 µM
  TGI: 17.2 µM
EKVX NSCLC
  GI50: 2.37 µM
  TGI: > 100 µM
ACHN renal
  GI50: 2.49 µM
  TGI: 54 µM
SN12C renal
  GI50: 0.321 µM
  TGI: 59.1 µM
M14 melanoma
  GI50: 0.993 µM
  TGI: 19.1 µM
MOLT-4 leukemia
  GI50: 4.33 µM
  TGI: 86.1 µM
OVCAR-8 ovarian
  GI50: 0.388 µM
  TGI: 36.6 µM
SK-OV-3 ovarian
  GI50: 2.87 µM
  TGI: 14.5 µM
U251 CNS
  GI50: 0.248 µM
  TGI: 12.6 µM
NCI-H522 lung
  GI50: 0.588 µM
  TGI: 12.4 µM
CAKI-1 renal
  GI50: 13.6 µM
  TGI: > 100 µM
SR leukemia
  GI50: 4.18 µM
  TGI: > 100 µM
OVCAR-4 ovarian
  GI50: 2.03 µM
  TGI: 56.6 µM
KM12 colon
  GI50: 0.608 µM
  TGI: 12.7 µM
MCF7 breast
  GI50: 0.623 µM
  TGI: 12.4 µM
A549 NSCLC
  GI50: 0.774 µM
  TGI: 21.7 µM
HL-60(TB) leukemia
  GI50: 4.04 µM
  TGI: 23.3 µM
A498 renal
  GI50: 0.548 µM
  TGI: 5.25 µM
HOP-92 NSCLC
  GI50: 1.15 µM
  TGI: 5.86 µM
HS 578T breast
  GI50: 0.201 µM
  TGI: 0.867 µM
UACC-257 melanoma
  GI50: 0.426 µM
  TGI: 5.96 µM
SF-539 CNS
  GI50: 0.362 µM
  TGI: 14.2 µM
SK-MEL-5 melanoma
  GI50: 0.455 µM
  TGI: 2.3 µM
786-0 renal
  GI50: 1.76 µM
  TGI: 20.2 µM
HCT-15 colon
  GI50: 4.01 µM
  TGI: > 100 µM
SNB-19 CNS
  GI50: 0.444 µM
  TGI: 20.7 µM
OVCAR-3 ovarian
  GI50: 1.25 µM
  TGI: 3.76 µM
NCI-H226 lung
  GI50: 1.76 µM
  TGI: 15.7 µM
SK-MEL-2 melanoma
  GI50: 1.4 µM
  TGI: 4.55 µM
TK-10 renal
  GI50: 5.23 µM
  TGI: 21.3 µM
MDA-MB-435
  GI50: 2.5 µM
  TGI: 30.3 µM
RXF 393 renal
  GI50: 1.83 µM
  TGI: 6.7 µM
NCI-H460 lung
  GI50: 0.728 µM
  TGI: 7.24 µM
DU-145 prostate
  GI50: 2.18 µM
  TGI: 15 µM
MDA-MB-231 breast
  GI50: 2.8 µM
  TGI: 8.76 µM
RPMI-8226 leukemia
  GI50: 0.476 µM
  TGI: > 100 µM
SNB-75 CNS
  GI50: 0.497 µM
  TGI: 11.7 µM
NCI/ADR-RES ovarian
  GI50: 15.5 µM
  TGI: > 100 µM
PC-3 prostate
  GI50: 1.22 µM
  TGI: 20.4 µM
SW-620 colon
  GI50: 1.14 µM
  TGI: 13.9 µM
SK-MEL-28 melanoma
  GI50: 3.49 µM
  TGI: 16.4 µM
UACC-62 melanoma
  GI50: 1.98 µM
  TGI: 11.9 µM
HCC-2998 colon
  GI50: 1.83 µM
  TGI: 15.5 µM
SF-295 CNS
  GI50: 0.475 µM
  TGI: > 100 µM
K-562 leukemia
  GI50: 0.682 µM
  TGI: > 100 µM
NCI-H23 lung
  GI50: 0.645 µM
  TGI: 17.3 µM
SF-268 CNS
  GI50: 0.471 µM
  TGI: 18.7 µM
LOX IMVI melanoma
  GI50: 1.41 µM
  TGI: 43.4 µM
UO-31 renal
  GI50: 3.66 µM
  TGI: 63.4 µM
IGROV1 ovarian
  GI50: 9.89 µM
  TGI: 85 µM
T-47D breast
  GI50: 0.405 µM
  TGI: 18.9 µM
HT29 colon
  GI50: 1.79 µM
  TGI: 11.6 µM
MALME-3M melanoma
  GI50: 1.94 µM
  TGI: 20.1 µM
COLO 205 colon
  GI50: 1.21 µM
  TGI: 3.15 µM
HCT-116 colon
  GI50: 0.784 µM
  TGI: 11.4 µM
